Data set [1] in a line: Mammalian toxicity, MTT colorimetric. Format: cell-based, murine. Particulars: mouse.
Data set [2] deals with L. infantum promastigotes. As to the kind of experiment: Antipromastigote assay (L. infantum), MTT colorimetric. Format: cell-based, Leishmania (L.) infantum. As to conditions: Leishmania infantum; ± SD; MTT, 48 h; read-out: L. infantum IC50 promastigotes.
For another data set, the system named is T. cruzi amastigotes. As to the kind of experiment: Antiamastigote assay (T. cruzi), ex vivo intracellular model using mice macrophages, microscopy. As to conditions: Trypanosoma cruzi, Peritoneal macrophage, 48 h, ± SD, read-out: T. cruzi IC50 amastigotes. Format: cell-based, Trypanosoma (T.) cruzi.

`COc1cc2c(cc1OC)[C@H](Cc1ccc(Br)cc1)N(C)CC2` [(S)-9a]: the CC50 at 96 h in data set [1] amounted to 42.5 ± 1.5 µM. The IC50 in data set [2] was determined as 18.4 ± 2.1 µM; in the data set with T. cruzi amastigotes it was 25.1 ± 3.1 µM.
Compound `COc1cc2c(cc1OC)[C@H](Cc1ccc(OC)c(OCc3ccccc3)c1)N(C)CC2` [(S)-9b] showed a CC50 at 96 h in data set [1] of 47.1 ± 11.2 µM. The IC50 in data set [2] was found to be 8.6 ± 0.8 µM; in the data set on T. cruzi amastigotes it was 12.2 ± 0.5 µM.
The compound `COc1cc2c(cc1OC)[C@@H](Cc1ccc(Oc3cc(C[C@H]4c5cc(OC)c(OC)cc5CCN4C)ccc3OC)cc1)N(C)CC2` [(S,R)-11, (−)-O,O′-dimethylgrisabine] returned a CC50 at 96 h in data set [1] of 10.2 ± 1.4 µM. The figures for the IC50 (in data set [2]; in the data set on T. cruzi amastigotes) were 0.8 ± 0.01 µM and 2.2 ± 0.7 µM, respectively.
